Drawing on ChEMBL document CHEMBL3132769, “Fragment growing to retain or alter the selectivity of anchored kinase hinge-binding fragments” (Medchemcomm, 2014), this text covers inhibition for 5 molecules.

Each structure is given as a SMILES string.

In assay [1] the target is Glycogen synthase kinase-3 beta (Homo sapiens) (UniProt P49841). In words: Inhibition of human full length GSK-3 beta expressed in baculovirus assessed as substrate phosphorylation using fluorescence-labelled peptides as substrate at 420 uM after 90 mins by microfluidic peptide phosphorylation assay.
Sequence of Glycogen synthase kinase-3 beta (Homo sapiens) (P49841 whole entry, looked up): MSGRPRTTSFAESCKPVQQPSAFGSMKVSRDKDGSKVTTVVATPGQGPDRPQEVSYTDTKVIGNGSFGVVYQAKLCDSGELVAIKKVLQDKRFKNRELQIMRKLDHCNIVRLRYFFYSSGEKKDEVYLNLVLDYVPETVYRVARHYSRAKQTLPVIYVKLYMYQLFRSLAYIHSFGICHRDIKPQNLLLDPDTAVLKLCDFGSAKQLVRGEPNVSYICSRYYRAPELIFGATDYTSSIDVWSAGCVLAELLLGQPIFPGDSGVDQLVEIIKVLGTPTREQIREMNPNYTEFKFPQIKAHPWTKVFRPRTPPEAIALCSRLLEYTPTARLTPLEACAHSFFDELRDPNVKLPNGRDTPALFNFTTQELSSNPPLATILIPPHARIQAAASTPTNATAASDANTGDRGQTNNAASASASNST
Assay [2] has as its target T1, Serine/threonine-protein kinase 3 (Homo sapiens) (UniProt Q13188).
T1 sequence (whole entry): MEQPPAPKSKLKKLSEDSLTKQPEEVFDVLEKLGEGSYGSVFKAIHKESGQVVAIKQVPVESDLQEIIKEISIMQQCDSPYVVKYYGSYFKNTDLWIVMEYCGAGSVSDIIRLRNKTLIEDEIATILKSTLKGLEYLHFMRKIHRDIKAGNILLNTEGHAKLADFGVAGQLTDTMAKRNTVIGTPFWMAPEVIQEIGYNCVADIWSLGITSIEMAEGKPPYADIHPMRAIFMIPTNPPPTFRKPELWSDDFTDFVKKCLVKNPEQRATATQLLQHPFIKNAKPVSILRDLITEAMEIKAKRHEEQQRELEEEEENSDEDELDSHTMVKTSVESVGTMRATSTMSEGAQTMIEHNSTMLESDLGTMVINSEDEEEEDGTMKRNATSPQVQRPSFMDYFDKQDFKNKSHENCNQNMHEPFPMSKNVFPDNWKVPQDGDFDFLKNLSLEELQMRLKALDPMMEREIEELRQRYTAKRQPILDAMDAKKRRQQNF
Briefly: Inhibition of human full length MST2 expressed in baculovirus assessed as substrate phosphorylation using fluorescence-labelled peptides as substrate at 0.06 uM after 90 mins by microfluidic peptide phosphorylation assay.

Assay [3] has as its target Tyrosine-protein kinase Fyn (Homo sapiens) (UniProt P06241). In words: Inhibition of human full length FYN expressed in baculovirus assessed as substrate phosphorylation using fluorescence-labelled peptides as substrate at 0.2 uM after 90 mins by microfluidic peptide phosphorylation assay.
Assay [4] deals with Fibroblast growth factor receptor 2 (Homo sapiens), P21802 [N549H]. Briefly: Inhibition of human FGFR2 N549H mutant catalytic domain expressed in baculovirus assessed as substrate phosphorylation using fluorescence-labelled peptides as substrate at 0.2 uM after 90 mins by microfluidic peptide phosphorylation assay.
Sequence of Fibroblast growth factor receptor 2 (Homo sapiens), P21802 [N549H] (P21802 whole entry N549H, the tested form may be a part): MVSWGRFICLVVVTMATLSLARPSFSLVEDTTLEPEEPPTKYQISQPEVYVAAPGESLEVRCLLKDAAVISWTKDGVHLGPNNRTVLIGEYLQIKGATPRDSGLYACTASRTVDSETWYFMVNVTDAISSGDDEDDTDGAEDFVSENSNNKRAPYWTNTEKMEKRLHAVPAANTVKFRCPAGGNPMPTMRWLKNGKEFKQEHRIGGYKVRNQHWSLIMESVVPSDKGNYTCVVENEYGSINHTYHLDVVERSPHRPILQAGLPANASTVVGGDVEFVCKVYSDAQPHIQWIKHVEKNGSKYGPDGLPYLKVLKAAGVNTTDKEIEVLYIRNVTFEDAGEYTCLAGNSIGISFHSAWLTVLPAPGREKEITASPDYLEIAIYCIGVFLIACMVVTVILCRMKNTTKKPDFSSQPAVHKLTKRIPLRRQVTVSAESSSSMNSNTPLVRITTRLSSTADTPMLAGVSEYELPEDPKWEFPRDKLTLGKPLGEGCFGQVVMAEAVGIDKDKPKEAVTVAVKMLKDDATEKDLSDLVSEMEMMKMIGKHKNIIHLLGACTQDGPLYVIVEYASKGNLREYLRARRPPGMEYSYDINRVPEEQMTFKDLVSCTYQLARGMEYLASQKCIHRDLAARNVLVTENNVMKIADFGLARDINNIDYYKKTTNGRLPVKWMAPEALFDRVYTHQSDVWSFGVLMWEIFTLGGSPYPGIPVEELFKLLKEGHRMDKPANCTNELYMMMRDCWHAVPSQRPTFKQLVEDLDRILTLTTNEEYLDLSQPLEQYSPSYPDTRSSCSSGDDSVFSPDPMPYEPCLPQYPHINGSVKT
Assay [5] deals with Serine/threonine-protein kinase MARK1 (Homo sapiens) (UniProt Q9P0L2). In words: Inhibition of human full length MARK1 expressed in baculovirus assessed as substrate phosphorylation using fluorescence-labelled peptides as substrate at 9 uM after 90 mins by microfluidic peptide phosphorylation assay.
Sequence of Serine/threonine-protein kinase MARK1 (Homo sapiens) (Q9P0L2 whole entry, looked up): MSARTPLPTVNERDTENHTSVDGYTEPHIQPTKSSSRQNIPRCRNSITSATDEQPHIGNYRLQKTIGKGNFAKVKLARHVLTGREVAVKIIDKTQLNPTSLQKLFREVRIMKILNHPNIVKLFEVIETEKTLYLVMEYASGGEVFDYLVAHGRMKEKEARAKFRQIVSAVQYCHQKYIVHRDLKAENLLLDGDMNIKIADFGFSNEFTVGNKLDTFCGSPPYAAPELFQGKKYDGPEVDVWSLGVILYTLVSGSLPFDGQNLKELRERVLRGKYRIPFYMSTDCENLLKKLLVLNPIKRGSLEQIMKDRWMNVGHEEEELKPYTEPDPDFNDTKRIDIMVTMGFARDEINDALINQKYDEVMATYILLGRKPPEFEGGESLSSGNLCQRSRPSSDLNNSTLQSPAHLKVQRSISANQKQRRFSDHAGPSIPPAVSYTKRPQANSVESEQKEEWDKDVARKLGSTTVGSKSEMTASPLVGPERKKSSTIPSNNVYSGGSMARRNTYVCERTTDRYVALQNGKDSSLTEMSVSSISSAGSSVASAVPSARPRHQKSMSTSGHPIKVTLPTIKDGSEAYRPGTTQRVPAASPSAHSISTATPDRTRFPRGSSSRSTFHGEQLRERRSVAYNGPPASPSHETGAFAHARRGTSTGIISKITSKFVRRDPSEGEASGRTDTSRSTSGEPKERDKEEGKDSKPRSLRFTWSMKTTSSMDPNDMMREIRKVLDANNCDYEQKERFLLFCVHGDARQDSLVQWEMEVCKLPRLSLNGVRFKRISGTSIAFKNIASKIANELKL
Assay [6] relates to T2, Receptor-type tyrosine-protein kinase FLT3 (Homo sapiens), P36888 [D835Y].
T2 sequence (whole entry): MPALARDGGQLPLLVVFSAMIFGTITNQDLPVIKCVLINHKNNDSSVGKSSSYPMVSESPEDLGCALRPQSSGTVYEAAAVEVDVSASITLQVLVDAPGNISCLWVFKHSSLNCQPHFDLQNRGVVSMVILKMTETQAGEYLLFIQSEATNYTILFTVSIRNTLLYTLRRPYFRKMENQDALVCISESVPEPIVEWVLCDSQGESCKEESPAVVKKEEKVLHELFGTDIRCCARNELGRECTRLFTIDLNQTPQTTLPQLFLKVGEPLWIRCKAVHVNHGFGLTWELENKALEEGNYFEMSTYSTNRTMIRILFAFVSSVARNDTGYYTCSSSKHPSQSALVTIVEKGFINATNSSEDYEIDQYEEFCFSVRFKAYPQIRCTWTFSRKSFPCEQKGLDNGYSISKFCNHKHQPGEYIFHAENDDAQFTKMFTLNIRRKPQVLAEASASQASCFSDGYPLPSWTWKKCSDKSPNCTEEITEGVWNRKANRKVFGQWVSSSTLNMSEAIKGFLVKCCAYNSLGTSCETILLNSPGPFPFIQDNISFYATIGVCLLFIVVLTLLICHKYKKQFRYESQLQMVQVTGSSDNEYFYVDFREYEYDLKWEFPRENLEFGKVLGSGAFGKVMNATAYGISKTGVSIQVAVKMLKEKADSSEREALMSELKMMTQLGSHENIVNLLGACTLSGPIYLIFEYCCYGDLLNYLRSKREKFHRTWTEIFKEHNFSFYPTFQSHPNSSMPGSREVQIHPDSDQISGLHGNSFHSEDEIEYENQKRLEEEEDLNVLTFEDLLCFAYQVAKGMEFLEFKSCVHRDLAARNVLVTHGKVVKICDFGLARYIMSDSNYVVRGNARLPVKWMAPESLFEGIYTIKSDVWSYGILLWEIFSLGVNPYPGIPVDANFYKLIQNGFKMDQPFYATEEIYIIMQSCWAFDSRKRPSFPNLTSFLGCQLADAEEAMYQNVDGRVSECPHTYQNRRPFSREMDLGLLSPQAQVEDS
In words: Inhibition of human FLT3 D835Y mutant catalytic domain expressed in baculovirus assessed as substrate phosphorylation using fluorescence-labelled peptides as substrate at 9 uM after 90 mins by microfluidic peptide phosphorylation assay.

In assay [7] the target is T3, Cytoplasmic tyrosine-protein kinase BMX (Homo sapiens) (UniProt P51813).
T3 sequence (whole entry): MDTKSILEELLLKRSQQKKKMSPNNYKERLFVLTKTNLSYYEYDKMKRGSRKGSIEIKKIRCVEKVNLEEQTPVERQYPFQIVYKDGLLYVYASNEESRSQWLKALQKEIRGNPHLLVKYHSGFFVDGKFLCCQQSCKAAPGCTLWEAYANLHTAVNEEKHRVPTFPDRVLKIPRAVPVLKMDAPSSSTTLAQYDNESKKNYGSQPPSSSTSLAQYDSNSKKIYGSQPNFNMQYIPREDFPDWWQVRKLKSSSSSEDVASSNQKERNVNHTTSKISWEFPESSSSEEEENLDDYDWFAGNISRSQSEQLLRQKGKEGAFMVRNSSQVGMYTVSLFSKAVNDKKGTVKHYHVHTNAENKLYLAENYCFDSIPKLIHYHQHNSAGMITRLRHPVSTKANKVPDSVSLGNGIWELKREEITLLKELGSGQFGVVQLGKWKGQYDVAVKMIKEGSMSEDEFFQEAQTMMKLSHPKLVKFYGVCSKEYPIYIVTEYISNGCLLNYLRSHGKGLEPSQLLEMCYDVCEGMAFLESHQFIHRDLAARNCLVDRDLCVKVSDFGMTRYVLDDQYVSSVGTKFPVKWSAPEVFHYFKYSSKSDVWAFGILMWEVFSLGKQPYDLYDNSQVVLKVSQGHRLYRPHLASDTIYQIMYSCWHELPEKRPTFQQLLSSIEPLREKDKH
In words: Inhibition of human full length BMX expressed in baculovirus assessed as substrate phosphorylation using fluorescence-labelled peptides as substrate at 9 uM after 90 mins by microfluidic peptide phosphorylation assay.

For assay [8], the target named is T1, Serine/threonine-protein kinase 3 (Homo sapiens). Briefly: Inhibition of human full length MST2 expressed in baculovirus assessed as substrate phosphorylation using fluorescence-labelled peptides as substrate at 95 uM after 90 mins by microfluidic peptide phosphorylation assay.
The target of assay [9] is Fibroblast growth factor receptor 4 (Homo sapiens) (UniProt P22455). In words: Inhibition of human FGFR4 catalytic domain expressed in baculovirus assessed as substrate phosphorylation using fluorescence-labelled peptides as substrate at 95 uM after 90 mins by microfluidic peptide phosphorylation assay.
Sequence of Fibroblast growth factor receptor 4 (Homo sapiens) (P22455 22-802 limits assumed): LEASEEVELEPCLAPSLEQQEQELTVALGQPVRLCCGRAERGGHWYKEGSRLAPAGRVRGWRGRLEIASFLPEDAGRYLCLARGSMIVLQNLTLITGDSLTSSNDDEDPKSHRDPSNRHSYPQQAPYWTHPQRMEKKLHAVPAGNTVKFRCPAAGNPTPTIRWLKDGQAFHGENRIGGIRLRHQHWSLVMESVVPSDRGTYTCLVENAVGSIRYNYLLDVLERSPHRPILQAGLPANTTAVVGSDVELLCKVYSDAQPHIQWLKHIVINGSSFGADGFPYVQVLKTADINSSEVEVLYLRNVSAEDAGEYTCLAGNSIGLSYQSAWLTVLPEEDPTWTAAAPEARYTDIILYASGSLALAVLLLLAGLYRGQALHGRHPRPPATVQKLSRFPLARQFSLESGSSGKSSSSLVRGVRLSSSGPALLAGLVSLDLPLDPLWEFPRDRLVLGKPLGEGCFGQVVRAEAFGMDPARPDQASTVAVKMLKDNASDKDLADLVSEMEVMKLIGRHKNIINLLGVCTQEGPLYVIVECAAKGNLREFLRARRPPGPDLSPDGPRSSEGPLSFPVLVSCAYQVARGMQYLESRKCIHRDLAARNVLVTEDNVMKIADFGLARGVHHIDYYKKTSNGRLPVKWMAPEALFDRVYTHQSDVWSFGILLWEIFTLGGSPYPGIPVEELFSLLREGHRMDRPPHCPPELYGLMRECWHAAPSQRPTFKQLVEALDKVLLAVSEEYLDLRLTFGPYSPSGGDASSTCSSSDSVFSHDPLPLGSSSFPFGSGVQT

Sequence of Tyrosine-protein kinase Fyn (Homo sapiens) (P06241 2-537 limits assumed): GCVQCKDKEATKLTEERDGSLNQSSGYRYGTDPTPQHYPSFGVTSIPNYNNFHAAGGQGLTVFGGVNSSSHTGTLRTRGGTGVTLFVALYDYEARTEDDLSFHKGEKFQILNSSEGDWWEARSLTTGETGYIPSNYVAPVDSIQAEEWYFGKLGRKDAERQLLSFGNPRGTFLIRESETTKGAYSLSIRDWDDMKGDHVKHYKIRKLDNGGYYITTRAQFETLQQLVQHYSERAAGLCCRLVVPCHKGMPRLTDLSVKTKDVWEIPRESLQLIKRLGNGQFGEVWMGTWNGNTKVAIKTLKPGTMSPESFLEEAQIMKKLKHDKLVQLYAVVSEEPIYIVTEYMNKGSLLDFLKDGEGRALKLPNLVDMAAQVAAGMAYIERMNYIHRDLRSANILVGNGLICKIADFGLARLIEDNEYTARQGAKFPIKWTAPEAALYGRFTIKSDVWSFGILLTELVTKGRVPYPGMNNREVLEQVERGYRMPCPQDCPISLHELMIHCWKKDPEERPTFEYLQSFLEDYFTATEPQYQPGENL

`c1nc(N2CCOCC2)c2nc[nH]c2n1`: the inhibition (in general, the percentage by which the read-out fell short of the control) in [1] is 90%.

Take `NC1(Cc2ccc(Cl)cc2)CCN(c2ncnc3[nH]ccc23)CC1`: the inhibition in assay [2] came to 3%.

On to `Clc1ccc(C2(c3ccc(-c4ncnc5[nH]cnc45)cc3)CCNCC2)cc1`, for which the results for the inhibition in assay [3] and in assay [4] were 16% and 7%, respectively.

On to `NCC1CN(c2ncnc3[nH]c4cnccc4c23)CCO1` (centres undefined), for which the inhibition is 2% in [5], 95% in assay [6] and 11% in [7].

On to `NCCc1ccc(-c2ncnc3[nH]cnc23)cc1`, for which the inhibition in assay [8] was found to be 86.5%; in assay [9], 10%.
